Assay [1] relates to cyprids of the cosmopolitan fouling barnacle Balanus amphitrite. Kind of assay: Inhibition of settlement of barnacle cyprid larvae, metabolites dissolved in water. Type of assay: in vivo. As to conditions: 24 hr, based on FIGS. 2 and 3. As to the method: Settlement assays were carried out using cyprids of the cosmopolitan fouling barnacle Balanus amphitrite. The methods used were similar to those used previously (Rittschof et al, 1994, Willemson 1994). Adult brood stock were maintained under controlled light (15 hr light: 9 hr dark) and temperature (28° C.) conditions and fed larvae of the brine shrimp Artemia salina and the diatom Skeletonema costatum. Recently spawned nauplii of B. amphitrite were collected and reared on Skeletonema costatum under the same conditions as adult stocks until reaching cyprid stage after four to five days. Cyprid larvae were subsequently filtered from the culture and maintained in filtered seawater at 5° C. for five days prior to use in settlement assays.
Assays used purified metabolites at concentrations ranging from 100 μg to 0.1 ng per millilitre. […]
Tests were conducted by adding 45-65 cyprids to petri-dishes (47 mm) containing five mls of either test solution, filtered seawater control, or DMSO control. […] The dishes were then rinsed and the percent settlement of cyprids was determined by counting settled and non settled larvae.
The effects of Delisea pulchra metabolites on the settlement of barnacle cyprid larvae, the growth of bacteria and the settlement and germination of algal spores were analysed in two ways. […]

The test system of assay [2] is marine bacterium SW8. Kind of assay: Inhibition of bacterial growth, marine isolate SW8. It counts as cell-based. As to conditions: c = control. As to the method: Assays to determine the antibacterial effect of Delisea metabolites used the marine isolate SW8 (Neu et al., 1991). […] Purified metabolites 1-4 were dissolved in ethyl acetate (10 mg/ml-10 μg/ml) and were added in volumes of 20 μl to sterilised McCartney bottles containing 19 mls of filter sterilised artificial seawater (ASW) medium supplemented with a trace vitamin and mineral solution (Schneider et al., 1994). Two reference compounds for antibacterial activity, the antibiotic gentamicin (Sigma)and a saturated copper (II) oxide solution, were also used in these tests. Following addition of metabolites, antibiotics or copper, the media was inoculated with SW8. The inoculum for the assay was taken from a continuous culture fermenter operating at a cell density of 10^7 cells/ml. The final concentration of metabolites and antibiotic tested ranged from 10 μg/ml to 10 ng/ml. Control bottles with media only, and media with 20 μl EtOAc added, were inoculated with SW8 and run concurrently with each experiment.
After mixing, 200 μl from each bottle was aseptically transferred to a well in a Nunc Tissue Culture plate (96 well). Plates were incubated aerobically at 30° C. with shaking. Growth was monitored by optical density (600 nm) every hour for 12 hours after which growth was monitored every four hours for a further 18 hours.
The effects of Delisea pulchra metabolites on the settlement of barnacle cyprid larvae, the growth of bacteria and the settlement and germination of algal spores were analysed in two ways. Firstly, we used Analysis of Variance (ANOVA) followed by Tukey's multiple comparison tests to determine which compounds, at which concentrations, had statistically significant effects on the test organisms. Analyses were done using the Statview II statistical package. These procedures enable us to determine the minimum concentration of a compound necessary to have some significant effect, and to look in a detailed way at variation in the effects of different compounds.

Data on two compounds can be found in US6060046A, “Antifouling compositions” (Unisearch Limited, priority 1994, dated 2000).

Turning to `O=S(=O)([O-])[O-].[Cu+2]` [CuSO4], in assay [1], the “EC50 + 95% conf. int. (50% settlement inhibition)” value is 0.40(0.25-0.77) μg/ml.

Take gentamicin: the “Compounds in order of increasing activity (growth inhibition)” value in assay [2] (4 hours, 10 ng/mL) is on record as “gent c 4 2 1 3”; in assay [2] (4 hours, 100 ng/mL), “gent 4 c 2 3 1”; in assay [2] (4 hours, 1.0 μg/mL) it was “c gent 2 1 4 3”; in assay [2] (4 hours, 10 μg/mL) it was “c 1 gent 2 3 4”; in assay [2] (11.5 hours, 10 ng/mL) it was “gent c 2 4 1 3”; in assay [2] (11.5 hours, 100 ng/mL), “gent 4 2 c 1 3”. Moreover, the “Compounds in order of increasing activity (growth inhibition)” value in assay [2] (11.5 hours, 1.0 μg/mL) was “c gent 1 2 3 4”; in assay [2] (11.5 hours, 10 μg/mL) it was “c 1 2 gent 3 4”; in assay [2] (third panel, time not given, 10 ng/mL), “gent 4 1 c 3 2”; in assay [2] (third panel, time not given, 100 ng/mL), “gent 4 3 2 c 1”; in assay [2] (third panel, time not given, 1.0 μg/mL) it was 2 c 1 3 4 gent; in assay [2] (third panel, time not given, 10 μg/mL) it was “c 1 2 gent 3 4”.
